Type in all cases: cell-based
Assay [1] concerns the target T1, Px1 hemi-channels (Rattus norvegicus, UniProt P60570).
T1 construct: expressed in transfected cells; host or cells: Xenopus laevis oocytes injected with in vitro transcribed RNA (pBSxG vector) plus antisense to endogenous Cx38
The experiment in a line: Px1 hemi-channel currents in single Xenopus oocytes (two-electrode voltage-clamp). The procedure: For physiological analysis, cells were injected with a total volume of 40 nl of either an antisense oligonucleotide (3 ng/cell) to suppress the endogenous Xenopus Cx38 (30), or a mixture of antisense plus the specified RNA (20-80 ng/cell). The ability of pannexins to form hemi-channels was assessed in single oocytes 2-4 days after RNA injection, using a two-electrode voltage-clamp.
Whole-cell membrane currents (Im) were measured from single oocytes co-injected with pannexin RNAs and an oligonucleotide antisense to Xenopus Cx38 (FIG. 3A). Cells were initially clamped at a membrane potential (Vm) of −40 mV and depolarizing steps lasting 2 sec were applied in 10 mV increments up to +60 mV (bottom traces).
(§1) Stage V-VI cells were individually selected under a dissecting microscope and cultured thereafter in control medium at 18° C. For physiological analysis, all cells were injected with a total volume of 40 nl of either an antisense oligonucleotide (3 ng/cell) to suppress the endogenous Xenopus Cx38 (30; 51), or a mixture of antisense (as above) plus the specified pannexin or connexin RNA. The following amounts of RNAs were injected: 40-80 ng/cell for Px1 and Px2 RNAs, either separately or co-injected at a 1:1 ratio; 4 ng/cell for Cx46; 10-20 ng/cell for Cx52.6. For analysis of Cx46 hemi-channels, the extracellular Ca^2+ concentration was raised to 2.9 mM to prevent the lysis of the injected oocytes that occurs in control medium, which contains 0.9 mM Ca^2+ (53). To characterize hemi-channel activity, current recordings were performed in single oocytes 24-96 hr after RNA injection, using a two-electrode voltage-clamp procedure.
(§2) The setup, hardware and software used for electrophysiological measurements and data analysis were as previously described (54; 49). Cells were clamped at −40 mV, and whole cell currents recorded in response to depolarizing voltage steps (from −20 to +60 mV in 20 mV increments) imposed for 2 sec. Current outputs were filtered at 200 Hz and sampled at 500 Hz.
All experiments were carried out at 18° C. Carbenoxolone (the succinyl ester of glycyrrhetinic acid), β-glycyrrhetinic acid and flufenamic (Sigma-Aldrich) were prepared freshly by dissolving them in either water (in the case of carbenoxolone) or dimethyl sulfoxide (DMSO), whose final concentration never exceeded 0.1%. […] Oocytes were placed on a Teflon tubing in a perfusion chamber and drugs were delivered using an electronically controlled gravity flow perfusion system (ALA Scientific Instruments, Westbury, N.Y.). […] Current-voltage (I-V) relationships were generated by plotting peak current values above holding currents (ΔIm) versus membrane potential. The time constants (τ) of voltage-dependent transitions of hemi-channel currents were calculated using data fitting functions in Origin 6.0 (Microcal Software, Northampton, Mass.). In all experiments, positive controls showing the effect of the tested drugs were routinely included.
Background: In two-electrode clamp one electrode senses voltage and the other passes current.

Assay [2] deals with T2, Px1/Px2 hemi-channels (Rattus norvegicus, UniProt P60570+P60571).
T2 construct: expressed in transfected cells; host or cells: Xenopus laevis oocytes co-injected with Px1 and Px2 RNA (1:1) plus antisense to endogenous Cx38
Nature of the assay: Heteromeric Px1/Px2 hemi-channel currents in single Xenopus oocytes (two-electrode voltage-clamp). How it is done:
as §1, §2
All experiments were carried out at 18° C. Carbenoxolone (the succinyl ester of glycyrrhetinic acid), β-glycyrrhetinic acid and flufenamic (Sigma-Aldrich) were prepared freshly by dissolving them in either water (in the case of carbenoxolone) or dimethyl sulfoxide (DMSO), whose final concentration never exceeded 0.1%. […] Oocytes were placed on a Teflon tubing in a perfusion chamber and drugs were delivered using an electronically controlled gravity flow perfusion system (ALA Scientific Instruments, Westbury, N.Y.). Cells were incubated for 15-30 minutes in the presence of the different drugs and reversibility was recorded after extensive washings in control medium. Current-voltage (I-V) relationships were generated by plotting peak current values above holding currents (ΔIm) versus membrane potential. The time constants (τ) of voltage-dependent transitions of hemi-channel currents were calculated using data fitting functions in Origin 6.0 (Microcal Software, Northampton, Mass.). In all experiments, positive controls showing the effect of the tested drugs were routinely included.

Assay [3] has as its target T3, Cx46 hemi-channels (Rattus norvegicus, UniProt P29414).
T3 construct: expressed in transfected cells; host or cells: Xenopus laevis oocytes injected with Cx46 RNA (4 ng/cell) plus antisense to endogenous Cx38
Nature of the assay: Cx46 hemi-channel currents in single Xenopus oocytes (two-electrode voltage-clamp). How it is done:
as §1, §2
All experiments were carried out at 18° C. Carbenoxolone (the succinyl ester of glycyrrhetinic acid), β-glycyrrhetinic acid and flufenamic (Sigma-Aldrich) were prepared freshly by dissolving them in either water (in the case of carbenoxolone) or dimethyl sulfoxide (DMSO), whose final concentration never exceeded 0.1%. […] Cells were incubated for 15-30 minutes in the presence of the different drugs and reversibility was recorded after extensive washings in control medium. […] The time constants (τ) of voltage-dependent transitions of hemi-channel currents were calculated using data fitting functions in Origin 6.0 (Microcal Software, Northampton, Mass.). […]

Here are results for three compounds from US20080132446A1, “Uses of neuronal pannexins for therapy and diagnosis in mammals” (INSTITUT PASTEUR, priority 2003, published 2008).

Values joined by “and” are separate entries in the source; they are usually repeats but may differ in a detail not shown here. Equal values may be shown once. “Also recorded” adds a separate entry of the source.

T1 sequence (P60570 whole entry): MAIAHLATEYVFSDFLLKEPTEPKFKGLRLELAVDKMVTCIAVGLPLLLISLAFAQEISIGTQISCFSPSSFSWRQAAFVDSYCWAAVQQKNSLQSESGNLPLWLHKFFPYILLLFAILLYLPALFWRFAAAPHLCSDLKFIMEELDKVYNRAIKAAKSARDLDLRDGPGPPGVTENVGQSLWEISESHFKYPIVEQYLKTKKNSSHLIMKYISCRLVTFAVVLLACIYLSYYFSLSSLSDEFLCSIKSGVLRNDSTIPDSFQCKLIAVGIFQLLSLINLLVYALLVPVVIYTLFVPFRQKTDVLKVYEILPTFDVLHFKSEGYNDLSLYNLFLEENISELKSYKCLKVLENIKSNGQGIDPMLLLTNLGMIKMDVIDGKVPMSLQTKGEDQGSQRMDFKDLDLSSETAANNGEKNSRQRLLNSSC
T2 sequence (P60570 whole entry): as above
T2 sequence (P60571 11-674): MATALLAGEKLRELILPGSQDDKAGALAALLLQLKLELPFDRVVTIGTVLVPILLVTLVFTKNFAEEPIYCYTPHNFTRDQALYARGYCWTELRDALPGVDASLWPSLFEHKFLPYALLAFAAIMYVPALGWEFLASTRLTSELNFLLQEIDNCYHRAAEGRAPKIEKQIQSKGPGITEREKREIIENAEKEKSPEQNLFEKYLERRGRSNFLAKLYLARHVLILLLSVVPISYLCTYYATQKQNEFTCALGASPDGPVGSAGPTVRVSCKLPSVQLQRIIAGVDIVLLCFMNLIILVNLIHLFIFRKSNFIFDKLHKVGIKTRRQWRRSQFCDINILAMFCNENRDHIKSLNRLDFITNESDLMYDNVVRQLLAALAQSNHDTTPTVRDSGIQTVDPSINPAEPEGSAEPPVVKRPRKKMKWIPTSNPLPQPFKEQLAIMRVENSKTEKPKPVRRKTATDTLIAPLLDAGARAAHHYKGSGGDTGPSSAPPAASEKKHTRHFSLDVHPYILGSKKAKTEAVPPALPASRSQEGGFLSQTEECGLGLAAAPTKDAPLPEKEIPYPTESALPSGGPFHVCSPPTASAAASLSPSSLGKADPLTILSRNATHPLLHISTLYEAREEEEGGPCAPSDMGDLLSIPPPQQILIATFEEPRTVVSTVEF

For the compound `CC1(C)[C@@H](O)CC[C@]2(C)[C@H]3C(=O)C=C4[C@H]5C[C@@](C)(C(=O)O)CC[C@]5(C)CC[C@@]4(C)[C@]3(C)CC[C@@H]12` [βGA, β-glycyrrhetinic acid], the “effect on Px1 hemi-channel currents” value in assay [1] (50 μM, 30 min incubation, reversible on washout) is “robust and reversible decrease; also recorded: strongly blocked”.

With `O=C(O)c1ccccc1Nc1cccc(C(F)(F)F)c1` [flufenamic acid], the “inhibition of Px1/Px2 current amplitudes at +60 mV” value in assay [2] (30 μM FFA, n=12) is “about 15%”. The “Px1/Px2 current amplitude at +60 mV” value in assay [2] (30 μM FFA, 603±123 nA in MB, n=12) is given as 504±101 nA; in assay [2] (300 μM FFA, 609±135 nA before, n=11), 448±104 nA. For the same compound, the inhibition at 300 µM in assay [2] (highest FFA concentration (300 μM), n=11, read-out: inhibition of Px1/Px2 current amplitudes at +60 mV) was determined as 27%. The “inhibition of Px1 currents” value in assay [1] (30 μM FFA, 30 min, at the more positive potentials) is on record as 10-15%. Also, the “effect on time constant (τ) of Px1 channel closure” value in assay [1] (300 μM FFA, +60 mV, listed as FFA) is “did not affect the time constant of channel closure; also recorded: did not show any appreciable change”. Also, in assay [1] (highest FFA concentration used (300 μM), +60 mV), the “extent of Px1 channel blockade” value was not above 33%. Moreover, the “effect on Px1 hemi-channels” value in assay [1] (increasing FFA concentrations up to 300 μM, 30 min, listed as FFA) was “moderate inhibition of Px1 currents; also recorded: modest inhibition of Px1 hemi-channels only at the highest dose”. The “inhibitory effect on pannexins” value in assay [1] (summary statement) is “only a modest inhibitory effect”. Also, the “effect on Cx46 hemi-channels” value in assay [3] (30 μM FFA, 30 min application, starting with the 0 mV depolarization step) is “strong (P<0.005) and fully reversible inhibition”. Moreover, in assay [3] (increasing FFA concentrations, 300 μM FFA, 30 min, listed as FFA), the “effect on Cx46 hemi-channel currents” value is “virtually suppressed Cx46 hemi-channels; also recorded: almost complete blockade”.

Usually Hill coefficient stands for the slope factor of the fitted curve. The IC50 is the midpoint of a concentration-inhibition curve. As to `CC1(C)[C@@H](OC(=O)CCC(=O)O)CC[C@]2(C)[C@H]3C(=O)C=C4[C@@H]5C[C@@](C)(C(=O)O)CC[C@]5(C)CC[C@@]4(C)[C@]3(C)CC[C@@H]12` [carbenoxolone], the “decrease of Px1/Px2 hemi-channel currents” value in assay [2] (10 μM CBX, 30 min incubation) is given as 50-60%. The “current amplitude at the +60 mV depolarization step” value in assay [2] (10 μM CBX, control medium 612±50 nA, n=6 cells) stood at 266±24 nA. Also, the “current amplitude at the +60 mV depolarization step after reversibility period” value in assay [2] (after 10 μM CBX, washout and 30 min in control medium, n=6 cells) turned out to be 541±70 nA. Also, the “effect on time constant (τ) of Px1 channel closure” value in assay [1] (3 μM CBX, +60 mV) is “gated much faster than in control medium”. Further, the “time constants (τ) of Px1 channel closure, faster than in control medium” value in assay [1] (3 μM CBX, depolarized to +60 mV from −40 mV, first order exponential decay fit) was “approximately 10 times”. The “decrease of Px1 hemi-channel currents” value in assay [1] (10 μM CBX, 30 min incubation) is 50-60%. The “effect on Px1 currents” value in assay [1] (30 μM carbenoxolone, 10-30 min incubation) was “completely suppressed Px1 currents”. The “peak amplitude of Px1 currents at +60 mV” value in assay [1] (30 μM carbenoxolone, 10-30 min incubation, control medium 1189±170 nA, n=4) came to 255±47 nA. For the same compound, the “effect on Px1 hemi-channel currents” value in assay [1] (50 μM, 30 min incubation, reversible on washout, listed as CBX) was “robust and reversible decrease; also recorded: strongly blocked”; in assay [1] (very low CBX concentrations (<1 μM)), “ineffective”. In assay [1] (concentration dependence of blockade of Px1 hemi-channel currents), this compound displayed a Hill coefficient of approximately 1. For the same compound, the half-maximal inhibitory concentration (IC50) in assay [1] (normalized peak currents at +60 mV, fit to Hill equation, 3-9 cells, read-out: IC50 of blockade of Px1 hemi-channel currents) was 5 µM and ~5 µM. In addition, the “reversibility of inhibition of Px1 hemi-channels” value in assay [1] (up to highest dose tested (100 μM), washout and 30 min in control medium) is on record as “always reversible”. Moreover, the “effect on I-V relationship of Cx46-expressing oocytes” value in assay [3] (10 μM CBX, 30 min incubation) is on record as “virtually identical to that measured in control medium”.
